Assay: gradient 5% acetonitrile 3 min, to 50% in 2 min, to 85% in 15 min, held 3 min, 100 µL/min
Conditions: column: Zorbax Extend-C18 2.1 x 50 mm; eluents: water / acetonitrile, 0.1% formic acid
In short: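 Using water and acetonitrile that each contained 0.1% formic acid, mixtures of ~100 pure standards were separated at 100 μL/min on a Zorbax Extend-C18 column (2.1 × 50 mm, 1.8 μm). The HPLC fed a quadrupole time-of-flight mass spectrometer working in positive and negative ionization mode, with dead and dwell volumes of 40 μL and 900 μL. Data were acquired over 3 months. Retention time was read from computationally picked adduct peaks after manual inspection of each.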

RP-LC retention time [s] | Structure (SMILES)
595 | Nc1cccc(-c2nccnc2N2CCCC2)c1
969 | Fc1cccc(-c2nn3c(CSc4ccccc4)nnc3s2)c1
930 | CC(C)Oc1ccc(C(=O)N2CCC3(CC2)C(=O)N(C)c2ccccc23)cc1
573 | Cc1cnc(-c2ccncc2)n1CC1CN(S(=O)(=O)C(C)C)C1
972 | CCc1ccc(C2=Nc3cccnc3N(CC(=O)Nc3ccc(C(C)=O)cc3)C(=O)C2)cc1
752 | N#Cc1cccc(N2C=C(C(=O)N3CCCC3)S(=O)(=O)c3ccc(F)cc32)c1
667 | CCCNC(=O)C1CCN(c2ccc(SCC(=O)Nc3cc(F)ccc3C)nn2)CC1
700 | Cn1nc(C(=O)N2CCCN(c3cc(-c4ccccc4)[nH]n3)CC2)c2ccccc21
593 | O=S(=O)(c1ccccc1Cl)N1CCN(c2ccc(Nc3ccccn3)nn2)CC1
850 | CC(C)NC(=O)CN1C(=O)C2CCCCN2c2ccc(S(=O)(=O)N3CCCCC3)cc21 (stereo not drawn)
742 | CSc1cccc(NC(=O)Cn2nc(C(=O)N3CCOCC3)cc2C2CC2)c1
695 | Cc1ccc(C(=O)NCCc2nc3cccnc3n2C(C)C)cc1C
1080 | CCOC(=O)C1CCN(c2ncnc3c2cnn3-c2cccc(C)c2)CC1
890 | CCOC(=O)c1nc(Nc2cccc(C)c2)c2ccccc2n1
1310 | Cc1sc(-c2nnc(C(=O)N3CCCC3)o2)cc1S(=O)(=O)NCc1cccnc1
990 | O=C(CSc1nnc(-c2ccc3c(c2)OCO3)o1)N1CCc2ccccc2C1
791 | Cc1cccc(N2CCN(C(=O)Cn3c(=O)c4nncn4c4ncccc43)CC2)c1C
934 | Cc1cc(C(=O)N2CCCCC2)c2c(=O)n(CC(=O)c3c(C)n(C)c4ccccc34)c(=O)n(C)c2n1
808 | O=C(Nc1cccc(Cl)c1)C1CCN(S(=O)(=O)c2ccc3[nH]c(=O)ccc3c2)CC1

RP-LC retention time [s] | Structure (SMILES)
676 | N#Cc1ccc(-c2nc(-c3ccc4c(c3)nnn4CCN3CCCCC3)no2)cc1
963 | CC(C)c1ccc(-c2ccnc3c(C(=O)N4CCN(c5ncccn5)CC4)cnn23)cc1
899 | CN1C(=O)C2(CCN(C(=O)C3CCCCC3)CC2)c2ccccc21
710 | COCc1nc2cccnc2n1C1CCN(C(=O)Nc2cc(C)ccc2C)CC1
831 | Cn1c(N2CCCC(C(=O)N3CCN(c4cccc(C(F)(F)F)c4)CC3)C2)cc(=O)n(C)c1=O (stereo not drawn)
570 | CC(C)c1nnc(-c2ccc(=O)n(CC(=O)N3CCN(c4ccccn4)CC3)c2)o1
1070 | COc1cccc(N2CCN(C(=O)C3CCN(c4nccnc4Sc4ccccc4)CC3)CC2)c1
818 | CCc1nc(-c2csc(S(=O)(=O)N3CCC(C(=O)NCc4ccccc4C)CC3)c2)no1
1250 | CCOc1nc2ccccc2nc1N1CCCC(C(=O)N2CCN(c3ccccc3OC)CC2)C1 (stereo not drawn)
1000 | Cc1ccc(NC(=O)c2sc(-c3cn(C)c4ncccc34)nc2C)cc1F
852 | Cc1ccc(Nc2ncccc2S(N)(=O)=O)cc1C
929 | CCOc1ccccc1NC(=O)Cn1nc(N2CCSCC2)c2ccccc2c1=O
662 | Cn1c(N2CCCC(C(=O)NCc3ccccc3)C2)cc(=O)n(C)c1=O (stereo not drawn)
1030 | CCN1C(=O)C2(CCN(S(=O)(=O)c3cc(F)ccc3OC)CC2)c2ccccc21
627 | Cn1cc(-c2nc(-c3cccc(Cl)c3)no2)c(=O)c2cc(F)c(N3CCCC3)cc21
661 | O=C(c1cc(-c2ccncc2)n[nH]1)N1CCCC(C(=O)N2CCN(c3ccc(Cl)cc3)CC2)C1 (stereo not drawn)
692 | CCOc1ccc(CNC(=O)C2CCN(S(=O)(=O)c3cn(C)cn3)CC2)cc1
635 | COC(=O)c1ccc(C(=O)NCC2CCN(c3ncccn3)CC2)cc1
683 | O=C1NCCOCCN(C(=O)COc2ccccc2)[C@H]2CCC[C@@H]12

Second part, the compound before the results:

Structure (SMILES) | RP-LC retention time [s]
O=C(Cn1ncc2c(c1=O)N(C1CC1)C(=O)CS2)Nc1ccc2c(c1)OCCO2 | 693
Cn1nccc1C(=O)Nc1ccsc1-c1nc(-c2ccc(Cl)cc2)no1 | 1430
COc1cccc(CC(=O)NCC(=O)Nc2nc3ccccc3n2C)c1 | 645
CCOC(=O)c1nc(NCCc2ccc(OCC)cc2)c2ccccc2n1 | 836
CC(=O)c1cccc(NC(=O)c2cn(C)cc3c(=O)n(-c4ccccc4)nc2-3)c1 | 826
CCCC(NC(=O)Cc1ccccc1Cl)C(=O)Nc1nc2ccccc2[nH]1 (stereo not drawn) | 713
CCCCNc1c(C(=O)OC)c(=O)[nH]c2c(Cl)cccc12 | 783
O=C(Cc1noc2ccccc12)NCCOc1ccc2nnc(-c3ccc(F)cc3)n2n1 | 679
CN(C)CCCNC(=O)Cn1c(=O)n(-c2ccccc2)c2ncccc21 | 592
CCOC(=O)c1[nH]c(C)c(CCC(=O)N2CCC(C(=O)NCc3ccc(C)cc3)CC2)c1C | 826
Cc1ccc(NC(=O)N(CCc2cccs2)Cc2cccnc2)cc1C | 649
CCOC(=O)c1[nH]c(C)c(CCC(=O)N2CCC(C(=O)N3CCCCCC3)CC2)c1C | 774
Cc1ccc(-c2ccc(=O)n(CCc3nc(-c4ccc(F)cc4)no3)n2)cc1C | 1100
COc1ccc(OC)c(NC(=O)c2noc3c2CCCC3)c1 | 1160
O=C(NCc1ccc(F)cc1F)c1nnn2c1COC(c1ccc(Cl)cc1)C2 (stereo not drawn) | 1040
COc1ccc2[nH]cc(CCNC(=O)c3cnn(-c4ccc(Cl)cc4)c3C3CCNCC3)c2c1 | 694
O=C(Nc1ccccc1Cl)N1CCC(N2CC(F)(F)C[C@H]2COCC2CC2)CC1 | 720
Cc1cccc(S(=O)(=O)Nc2ccc(C3(C(=O)NCC4CCCO4)CC3)cc2)c1 (stereo not drawn) | 828
O=C(Nc1nc(-c2cccc([N+](=O)[O-])c2)cs1)c1cccc(Br)c1 | 1170
CC(C)(Oc1ccc(Cl)cc1)C(=O)Nc1nnc(C2CC(=O)N(c3ccccc3)C2)o1 (stereo not drawn) | 793
COc1ccc(NC(=O)CN2CCN(Cc3ccc(F)cc3)C(=O)C2=O)cc1 | 697
Cc1c(C(=O)NC2CCS(=O)(=O)C2)nnn1-c1ccccc1F (stereo not drawn) | 656
Cc1ccc(C(=O)N2CCCCCNC(=O)[C@@H]3CCC[C@@H]32)s1 | 740
CCCCC(=O)N(CC)c1nc(-c2ccccc2)cs1 | 1330
COCCc1noc(C2CN(S(=O)(=O)c3cccnc3)C2)n1 | 669

Structure (SMILES) | RP-LC retention time [s]
CC(O)(CS(=O)(=O)c1ccc(F)cc1)C(=O)Nc1ccc(C#N)c(C(F)(F)F)c1 (stereo not drawn) | 992
Cc1nc(CSc2cc(C)c3ccccc3n2)cs1 | 969
CC(C)c1ccc(S(=O)(=O)N2CCC(C(=O)NCCc3csc(-c4ccccc4)n3)CC2)cc1 | 1080
CCC(=O)Nc1ccc(CCc2nc3ccc(C(=O)NCc4ccc(C)o4)cc3[nH]2)cc1 | 638
CCc1ccccc1NC(=O)N1CCC(N(CCC(C)C)C2CCOCC2)CC1 | 665
Cc1ccc(Cl)cc1NC(=O)Cc1c(C)nn(-c2nc(-c3ccc(F)cc3)cs2)c1C | 1250
COc1ccc(C2Cn3nnc(-c4nc(-c5ccc(C)c(C)c5)no4)c3CO2)cc1 (stereo not drawn) | 1270
CC(NC(=O)C1CCN(C(=O)c2ncn3c2COC(c2ccc(Cl)cc2)C3)CC1)c1ccccc1 (stereo not drawn) | 854
Cc1ccc2nc(C)c(NC(=O)c3ccccc3C(F)(F)F)c(=O)n2c1 | 620
O=C(Cn1cnc2nc(N3CCCC(C(=O)NC4CC4)C3)sc2c1=O)NC1CCCCC1 (stereo not drawn) | 652
CC(C)Cn1c(=O)c2cc(C(=O)NC(C)c3cccs3)nn2c2ccccc21 (stereo not drawn) | 1050
COc1cccc(-c2nnc(Cc3nc(-c4ccccc4Cl)no3)o2)c1 | 1020
Cc1ccc2cc(CCC(=O)NCCc3cccnc3)c(=O)[nH]c2c1 | 586
O=C(NCc1ccco1)c1cc2c(s1)CCN(C(=O)c1ccccc1)C2 | 758
COCCc1nnc(NC(=O)c2cn(C)nc2OC)o1 | 558
Cc1sc(C)c(C(=O)NC2(c3ccc(C(=O)O)cc3)CC2)c1Cc1ccc(C(F)(F)F)cc1 | 1070
O=C(Nc1ccccc1-c1nc2ccccc2s1)c1ccno1 | 728
O=C(NCC1CC1)c1c(OCC2CC2)cc(=O)n2c1CCCCC2 | 688
Cc1ccc(CNS(=O)(=O)c2ccc(-c3nnc(C4CC4)o3)o2)o1 | 816
CCCN1C(=O)c2c(C(=O)NCc3ccccc3)ncn2CC1(C)C(=O)NCCC(C)C (stereo not drawn) | 817
COC(=O)CSCC(=O)Nc1nccs1 | 610
COC(=O)c1cc2c(=O)n(CCc3cccs3)ccc2nc1C | 838
COc1ccc(Cn2nccc2NC(=O)c2cc(=O)c3ccc(Br)cc3o2)cc1 | 870
CCc1ccccc1NS(=O)(=O)c1cc(-c2c(CC)noc2NC(C)=O)ccc1OC | 838
Cc1ccc(C)c(S(=O)(=O)N2c3ccccc3CC2c2nc(C(C)C)no2)c1 (stereo not drawn) | 1230
